Laboratory results from patent US7741354B2, “Inhibitors of glutaminyl cyclase” (Probiodrug AG, priority 2006, dated 2010).

Molecular target: hQC (Homo sapiens, UniProt Q16769)
Assay: Fluorometric (fluorescent) assay of hQC inhibition, IC50
Format: biochemical
Conditions: read-out: IC50
Description: All compounds were immediately tested regarding their activity as hQC inhibitors.
The purity of the compounds was determined by HPLC-MS. The IC50 value against hQC was measured using the fluorescent assay.
All measurements were performed with a BioAssay Reader HTS-7000Plus for microplates (Perkin Elmer) at 30° C. QC activity was evaluated fluorometrically using H-Gln-βNA. The samples consisted of 0.2 mM fluorogenic substrate, 0.25 U pyroglutamyl aminopeptidase (Unizyme, Horsholm, Denmark) in 0.2 M Tris/HCl, pH 8.0 containing 20 mM EDTA and an appropriately diluted aliquot of QC in a final volume of 250 μl. Excitation/emission wavelengths were 320/410 nm. The assay reactions were initiated by addition of glutaminyl cyclase. QC activity was determined from a standard curve of β-naphthylamine under assay conditions. One unit is defined as the amount of QC catalyzing the formation of 1 μmol pGlu-βNA from H-Gln-βNA per minute under the described conditions.
In a second fluorometric assay, QC was activity determined using H-Gln-AMC as substrate. Reactions were carried out at 30° C. utilizing the NOVOStar reader for microplates (BMG labtechnologies). The samples consisted of varying concentrations of the fluorogenic substrate, 0.1 U pyroglutamyl aminopeptidase (Qiagen) in 0.05 M Tris/HCl, pH 8.0 containing 5 mM EDTA and an appropriately diluted aliquot of QC in a final volume of 250 μl. Excitation/emission wavelengths were 380/460 nm. The assay reactions were initiated by addition of glutaminyl cyclase. QC activity was determined from a standard curve of 7-amino-4-methylcoumarin under assay conditions. The kinetic data were evaluated using GraFit sofware.
For inhibitor testing, the sample composition was the same as described above, except of the putative inhibitory compound added. For a rapid test of QC-inhibition, samples contained 4 mM of the respective inhibitor and a substrate concentration at 1 KM. For detailed investigations of the inhibition and determination of Ki-values, influence of the inhibitor on the auxiliary enzymes was investigated first. […] The inhibitory constant was evaluated by fitting the set of progress curves to the general equation for competitive inhibition using GraFit software.

Sequence of hQC (Q16769 29-361): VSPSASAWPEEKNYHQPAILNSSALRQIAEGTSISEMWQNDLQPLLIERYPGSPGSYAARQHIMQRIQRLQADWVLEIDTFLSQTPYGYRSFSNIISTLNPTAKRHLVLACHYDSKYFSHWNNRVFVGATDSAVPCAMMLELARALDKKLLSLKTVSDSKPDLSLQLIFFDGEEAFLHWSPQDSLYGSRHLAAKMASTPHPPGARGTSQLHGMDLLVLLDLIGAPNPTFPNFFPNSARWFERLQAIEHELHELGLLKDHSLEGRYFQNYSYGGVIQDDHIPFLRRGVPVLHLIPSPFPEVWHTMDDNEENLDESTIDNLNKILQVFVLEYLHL

| Structure (SMILES) | IC50 [µM] |
| --- | --- |
| Cn1nnnc1C(NCCCn1ccnc1)c1ccc2[nH]ccc2c1 (stereo not drawn) [compound 30, (3-Imidazol-1-yl-propyl)-[(1H-indol-5-yl)-(1-methyl-1H-tetrazol-5-yl)-methyl]-amine] | 4 |
| Cn1nnnc1C(NCCCn1ccnc1)c1ccc2ccccc2n1 (stereo not drawn) [compound 31, (3-Imidazol-1-yl-propyl)-[(1-methyl-1H-tetrazol-5-yl)-quinolin-2-yl-methyl]-amine] | 4.9 |
| COCCCn1nnnc1C(NCCCn1ccnc1)c1ccc(Cl)c(Cl)c1 (stereo not drawn) [compound 32, {(3,4-Dichloro-phenyl)-[1-(3-methoxy-propyl)-1H-tetrazol-5-yl]-methyl}-(3-imidazol-1-yl-propyl)-amine] | 7.6 |
| COCCCn1nnnc1C(NCCCn1ccnc1)c1cc(O)ccc1C (stereo not drawn) [compound 33, 3-{(3-Imidazol-1-yl-propylamino)-[1-(3-methoxy-propyl)-1H-tetrazol-5-yl]-methyl}-4-methyl-phenol] | 4 |
| COCCCn1nnnc1C(NCCCn1ccnc1)c1ccc2cccc(O)c2n1 (stereo not drawn) [compound 34, 2-{(3-Imidazol-1-yl-propylamino)-[1-(3-methoxy-propyl)-1H-tetrazol-5-yl]-methyl}-quinolin-8-ol] | 2.2 |
| COCCCn1nnnc1C(NCCCn1ccnc1)c1ccc2[nH]ccc2c1 (stereo not drawn) [compound 35, (3-Imidazol-1-yl-propyl)-{(1H-indol-5-yl)-[1-(3-methoxy-propyl)-1H-tetrazol-5-yl]-methyl}-amine] | 7.6 |
| COCCCn1nnnc1C(NCCCn1ccnc1)c1ccc2ccccc2n1 (stereo not drawn) [compound 36, (3-Imidazol-1-yl-propyl)-{[1-(3-methoxy-propyl)-1H-tetrazol-5-yl]-quinolin-2-yl-methyl}-amine] | 3.1 |
| CN(C)CCn1nnnc1C(NCCCn1ccnc1)c1ccc2cccc(O)c2n1 (stereo not drawn) [compound 37, 2-[[1-(2-Dimethylamino-ethyl)-1H-tetrazol-5-yl]-(3-imidazol-1-yl-propylamino)-methyl]-quinolin-8-ol] | 4.9 |
| COCCn1nnnc1C(NCCCn1ccnc1)c1cc(C)ccc1O (stereo not drawn) [compound 39, 2-{(3-Imidazol-1-yl-propylamino)-[1-(2-methoxy-ethyl)-1H-tetrazol-5-yl]-methyl}-4-methyl-phenol] | 8.5 |
| COCCn1nnnc1C(NCCCn1ccnc1)c1ccc2cccc(O)c2n1 (stereo not drawn) [compound 40, 2-{(3-Imidazol-1-yl-propylamino)-[1-(2-methoxy-ethyl)-1H-tetrazol-5-yl]-methyl}-quinolin-8-ol] | 3.1 |
| COCCn1nnnc1C(NCCCn1ccnc1)c1ccc2[nH]ccc2c1 (stereo not drawn) [compound 41, (3-Imidazol-1-yl-propyl)-{(1H-indol-5-yl)-[1-(2-methoxy-ethyl)-1H-tetrazol-5-yl]-methyl}-amine] | 4.9 |
| COCCn1nnnc1C(NCCCn1ccnc1)c1ccc2ccccc2n1 (stereo not drawn) [compound 42, (3-Imidazol-1-yl-propyl)-{[1-(2-methoxy-ethyl)-1H-tetrazol-5-yl]-quinolin-2-yl-methyl}-amine] | 5.8 |
| COCCn1nnnc1C(NCCCn1ccnc1)c1cc(C)c(C)cc1C (stereo not drawn) [compound 43, (3-Imidazol-1-yl-propyl)-[[1-(2-methoxy-ethyl)-1H-tetrazol-5-yl]-(2,4,5-trimethyl-phenyl)-methyl]-amine] | 7.6 |
| C=CCn1nnnc1C(NCCCn1ccnc1)c1cc(C)ccc1O (stereo not drawn) [compound 44, 2-[(1-Allyl-1H-tetrazol-5-yl)-(3-imidazol-1-yl-propylamino)-methyl]-4-methyl-phenol] | 4.9 |
| C=CCn1nnnc1C(NCCCn1ccnc1)c1ccc2cccc(O)c2n1 (stereo not drawn) [compound 45, 2-[(1-Allyl-1H-tetrazol-5-yl)-(3-imidazol-1-yl-propylamino)-methyl]-quinolin-8-ol] | 4 |
| C=CCn1nnnc1C(NCCCn1ccnc1)c1ccc2[nH]ccc2c1 (stereo not drawn) [compound 46, [(1-Allyl-1H-tetrazol-5-yl)-(1H-indol-5-yl)-methyl]-(3-imidazol-1-yl-propyl)-amine] | 7.6 |
| C=CCn1nnnc1C(NCCCn1ccnc1)c1ccc2ccccc2n1 (stereo not drawn) [compound 47, [(1-Allyl-1H-tetrazol-5-yl)-quinolin-2-yl-methyl]-(3-imidazol-1-yl-propyl)-amine] | 3.1 |
| C=CCn1nnnc1C(NCCCn1ccnc1)c1cc(C)c(C)cc1C (stereo not drawn) [compound 48, [(1-Allyl-1H-tetrazol-5-yl)-(2,4,5-trimethyl-phenyl)-methyl]-(3-imidazol-1-yl-propyl)-amine] | 9.4 |

| Structure (SMILES) | IC50 [µM] |
| --- | --- |
| COC(=O)Cn1nnnc1C1(NCCCn2ccnc2)CCC1 [compound 49, {5-[1-(3-Imidazol-1-yl-propylamino)-cyclobutyl]-tetrazol-1-yl}-acetic methyl ester] | 0.4 |
| COC(=O)Cn1nnnc1C(NCCCn1ccnc1)c1ccc(Cl)c(Cl)c1 (stereo not drawn) [compound 50, {5-[(3,4-Dichloro-phenyl)-(3-imidazol-1-yl-propylamino)-methyl]-tetrazol-1-yl}-acetic methyl ester] | 4 |
| COC(=O)Cn1nnnc1C(NCCCn1ccnc1)c1cc(C)ccc1O (stereo not drawn) [compound 51, {5-[(2-Hydroxy-5-methyl-phenyl)-(3-imidazol-1-yl-propylamino)-methyl]-tetrazol-1-yl}-acetic methyl ester] | 2.2 |
| COC(=O)Cn1nnnc1C(NCCCn1ccnc1)c1ccc2cccc(O)c2n1 (stereo not drawn) [compound 52] | 4.9 |
| COC(=O)Cn1nnnc1C(NCCCn1ccnc1)c1ccc(F)c(C#N)c1 (stereo not drawn) [compound 53, {5-[(3-Cyano-4-fluoro-phenyl)-(3-imidazol-1-yl-propylamino)-methyl]-tetrazol-1-yl}-acetic methyl ester] | 4 |
| COC(=O)Cn1nnnc1C(NCCCn1ccnc1)c1ccc2[nH]ccc2c1 (stereo not drawn) [compound 54, {5-[(3-Imidazol-1-yl-propylamino)-(1H-indol-5-yl)-methyl]-tetrazol-1-yl}-acetic methyl ester] | 5.8 |
| COC(=O)Cn1nnnc1C(NCCCn1ccnc1)c1ccc2ccccc2n1 (stereo not drawn) [compound 55, {5-[(3-Imidazol-1-yl-propylamino)-quinolin-2-yl-methyl]-tetrazol-1-yl}-acetic methyl ester] | 2.2 |
| COC(=O)Cn1nnnc1C(NCCCn1ccnc1)[C@@H]1CCC=CO1 (stereo partly drawn) [compound 56, {5-[(S)-3,4-Dihydro-2H-pyran-2-yl-(3-imidazol-1-yl-propylamino)-methyl]-tetrazol-1-yl}-acetic methyl ester] | 4.9 |
| COC(=O)Cn1nnnc1C(NCCCn1ccnc1)C1CC1 (stereo not drawn) [compound 57, {5-[Cyclopropyl-(3-imidazol-1-yl-propylamino)-methyl]-tetrazol-1-yl}-acetic methyl ester] | 0.4 |
| COC(=O)Cn1nnnc1C(NCCCn1ccnc1)c1ccc(OC)c(O)c1 (stereo not drawn) [compound 58, {5-[(3-Hydroxy-4-methoxy-phenyl)-(3-imidazol-1-yl-propylamino)-methyl]-tetrazol-1-yl}-acetic methyl ester] | 4 |
| Cc1ccc(O)c(C(NCCCn2ccnc2)c2nnnn2C(C)(C)C)c1 (stereo not drawn) [compound 59, 2-[(1-tert-Butyl-1H-tetrazol-5-yl)-(3-imidazol-1-yl-propylamino)-methyl]-4-methyl-phenol] | 1.3 |
| CC(C)(C)n1nnnc1C(NCCCn1ccnc1)c1ccc2cccc(O)c2n1 (stereo not drawn) [compound 60, 2-[(1-tert-Butyl-1H-tetrazol-5-yl)-(3-imidazol-1-yl-propylamino)-methyl]-quinolin-8-ol] | 0.4 |
| COc1ncc(C(NCCCn2ccnc2)c2nnnn2C(C)(C)C)c(OC)n1 (stereo not drawn) [compound 62, [(1-tert-Butyl-1H-tetrazol-5-yl)-(2,4-dimethoxy-pyrimidin-5-yl)-methyl]-(3-imidazol-1-yl-propyl)-amine] | 8.5 |
| CC(C)(C)Cn1nnnc1C(NCCCn1ccnc1)c1ccc2[nH]ccc2c1 (stereo not drawn) [compound 65, [[1-(2,2-Dimethyl-propyl)-1H-tetrazol-5-yl]-(1H-indol-5-yl)-methyl]-(3-imidazol-1-yl-propyl)-amine] | 4.9 |
| CC(C)(C)Cn1nnnc1C(NCCCn1ccnc1)c1ccc2ccccc2n1 (stereo not drawn) [compound 66, {[1-(2,2-Dimethyl-propyl)-1H-tetrazol-5-yl]-quinolin-2-yl-methyl}-(3-imidazol-1-yl-propyl)-amine] | 3.1 |
| CC(C)(C)Cn1nnnc1C(NCCCn1ccnc1)[C@@H]1CCC=CO1 (stereo partly drawn) [compound 67] | 6.7 |
| c1cn(CCCNC(c2ccc3[nH]ccc3c2)c2nnnn2C2CC2)cn1 (stereo not drawn) [compound 69, [(1-Cyclopropyl-1H-tetrazol-5-yl)-(1H-indol-5-yl)-methyl]-(3-imidazol-1-yl-propyl)-amine] | 4.9 |
| c1ccc2nc(C(NCCCn3ccnc3)c3nnnn3C3CC3)ccc2c1 (stereo not drawn) [compound 70, [(1-Cyclopropyl-1H-tetrazol-5-yl)-quinolin-2-yl-methyl]-(3-imidazol-1-yl-propyl)-amine] | 5.8 |
